ChEMBL document CHEMBL3232928, “Fragment-to-hit-to-lead discovery of a novel pyridylurea scaffold of ATP competitive dual targeting type II topoisomerase inhibiting antibacterial agents” (J Med Chem, 2013)
≈ marks a conversion by molar mass, not a printed value.

How the values were obtained:
DNA gyrase subunit B = DNA gyrase subunit B (Staphylococcus aureus, UniProt P0A0K8); assay: Inhibition of ATPase activity in Staphylococcus aureus GyrB tetramer in presence of Escherichia coli GyrA by ammonium molybdate/malachite green-based absorbance assay
[1] = Inhibition of ATPase activity in Escherichia coli GyrA/GyrB by ammonium molybdate/malachite green-based absorbance assay
[2] = Inhibition of ATPase activity in Escherichia coli ParC/ParE by ammonium molybdate/malachite green-based absorbance assay
[3] = Inhibition of ATPase activity in Escherichia coli ParE by ammonium molybdate/malachite green-based absorbance assay
[4] = Antibacterial activity against Streptococcus pneumoniae D39 NCTC 7466 assessed as growth inhibition after 18 to 24 hrs by CLSI broth microdilution method; type: functional
Staphylococcus aureus [5] = assay: Antibacterial activity against methicillin-sensitive wild type Staphylococcus aureus assessed as growth inhibition after 18 to 24 hrs by CLSI broth microdilution method; type: functional
Moraxella catarrhalis = assay: Antibacterial activity against wild type Moraxella catarrhalis ATCC 43617 assessed as growth inhibition after 18 to 24 hrs by CLSI broth microdilution method; type: functional
[6] = Antibacterial activity against wild type Haemophilus influenzae Rd KW20 ATCC 51907 assessed as growth inhibition after 18 to 24 hrs by CLSI broth microdilution method; type: functional
Escherichia coli [7] = assay: Antibacterial activity against wild type Escherichia coli W3110 assessed as growth inhibition after 18 to 24 hrs by CLSI broth microdilution method; type: functional
Escherichia coli [8] = assay: Antibacterial activity against tolC efflux pump deficient Escherichia coli W3110 assessed as growth inhibition after 18 to 24 hrs by CLSI broth microdilution method; type: functional
[9] = Octanol-phosphate buffer partition coefficient, log D of the compound at pH 7.4 after 1 hr by shake flask method; type: physicochemical
[10] = Solubility of the compound; type: physicochemical
Staphylococcus aureus [11] = assay: Antibacterial activity against methicillin-resistant and […] Staphylococcus aureus assessed as growth inhibition after 18 to 24 hrs by CLSI broth microdilution method; type: functional
[12] = Unbound fraction in human at 10 uM after 16 hrs by LC-MS/MS analysis; type: ADME; details: plasma
[13] = Clearance in rat plasma at 10 mg/kg, iv administered 15 mins of infusion measured for 0 to 24 hrs by LC-MS/MS analysis; type: ADME, organism-based; parameters: dose 10 mg/kg, route intravenous

Chain of DNA gyrase subunit B (P0A0K8 whole entry): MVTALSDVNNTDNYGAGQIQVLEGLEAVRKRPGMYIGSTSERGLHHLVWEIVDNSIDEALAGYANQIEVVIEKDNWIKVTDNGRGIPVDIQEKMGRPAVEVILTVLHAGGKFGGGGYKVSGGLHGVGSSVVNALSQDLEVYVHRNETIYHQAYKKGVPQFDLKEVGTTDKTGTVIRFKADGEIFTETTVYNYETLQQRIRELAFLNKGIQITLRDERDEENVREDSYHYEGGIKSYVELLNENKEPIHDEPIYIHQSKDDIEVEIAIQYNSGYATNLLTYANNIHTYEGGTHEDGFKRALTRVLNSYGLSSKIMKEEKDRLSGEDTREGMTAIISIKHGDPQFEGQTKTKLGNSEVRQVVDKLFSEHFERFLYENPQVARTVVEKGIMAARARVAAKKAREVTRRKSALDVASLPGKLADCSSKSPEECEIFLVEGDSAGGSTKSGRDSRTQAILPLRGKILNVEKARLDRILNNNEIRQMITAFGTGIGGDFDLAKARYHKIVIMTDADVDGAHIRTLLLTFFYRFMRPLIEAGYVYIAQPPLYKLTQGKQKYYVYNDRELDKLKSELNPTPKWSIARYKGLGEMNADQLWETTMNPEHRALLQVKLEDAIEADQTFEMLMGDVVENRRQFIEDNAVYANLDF

Q: With `O=C(NCC(F)(F)F)Nc1ccccn1` as the molecule, how does the IC50 (DNA gyrase subunit B) read?
A: Its IC50 is greater than 1000 µM.

Q: With `CCNC(=O)Nc1cc(-c2cccnc2)c(-c2cncc(C(=O)O)c2)cn1` as the molecule, how does the IC50 (DNA gyrase subunit B) read?
A: The IC50 was 0.27 µM.

Q: What about the IC50 [1] of the same molecule?
A: The IC50 was 0.3 µM.

Q: What about the IC50 [2] of the same molecule?
A: The IC50 was 10 µM.

Q: And the IC50 [3]?
A: Its IC50 is 0.31 µM.

Q: What about the MIC [4] of the same molecule?
A: The MIC was greater than 64 µg/mL.

Q: And the MIC (Staphylococcus aureus [5])?
A: Its MIC is greater than 64 µg/mL.

Q: And the MIC (Moraxella catarrhalis)?
A: The MIC was greater than 64 µg/mL.

Q: What about the MIC [6] of the same molecule?
A: Its MIC is greater than 64 µg/mL.

Q: What about the MIC (Escherichia coli [7]) of the same molecule?
A: Its MIC is greater than 64 µg/mL.

Q: And the MIC (Escherichia coli [8])?
A: The MIC was greater than 64 µg/mL.

Q: And the logD at 1 h [9]?
A: The logD at 1 h was -1.5.

Q: Which IC50 (DNA gyrase subunit B) does the source give for `CCOC(=O)Nc1ccccn1` here?
A: Its IC50 is greater than 1000 µM.

Q: What does the source list for `CCNC(=O)Nc1ccc(-c2cccc(C(=O)O)c2)cn1`?
A: IC50 (DNA gyrase subunit B): 3.4 µM; IC50 [1]: 4.7 µM; IC50 [2]: 69 µM; IC50 [3]: 2 µM; MIC [4]: 21 µg/mL (≈ 73.6 µM); MIC (Staphylococcus aureus [5]): > 64 µg/mL; MIC (Moraxella catarrhalis): 42 µg/mL (≈ 147 µM); MIC [6]: 59 µg/mL (≈ 207 µM); MIC (Escherichia coli [7]): > 64 µg/mL; MIC (Escherichia coli [8]): > 64 µg/mL

Q: With `CCNC(=O)Nc1ccc(-c2nc3cccc(C(=O)O)c3s2)cn1` as the molecule, how does the IC50 (DNA gyrase subunit B) read?
A: The IC50 was 0.1 µM.

Q: And the IC50 [2]?
A: The IC50 was 2.1 µM.

Q: What about the MIC [4] of the same molecule?
A: Its MIC is 2 µg/mL (≈ 5.84 µM).

Q: And the MIC (Staphylococcus aureus [5])?
A: The MIC was greater than 64 µg/mL.

Q: And the MIC (Moraxella catarrhalis)?
A: The MIC was 8 µg/mL (≈ 23.4 µM).

Q: And the MIC [6]?
A: Its MIC is 16 µg/mL (≈ 46.7 µM).

Q: And the MIC (Escherichia coli [7])?
A: Its MIC is greater than 64 µg/mL.

Q: What about the MIC (Escherichia coli [8]) of the same molecule?
A: The MIC was 8 µg/mL (≈ 23.4 µM).

Q: For `CCNC(=O)Nc1ccc(-c2nc3cccc(C(N)=O)c3s2)cn1`, which IC50 (DNA gyrase subunit B) is on record?
A: Its IC50 is 0.039 µM.

Q: And the IC50 [1]?
A: The IC50 was 0.094 µM.

Q: What about the IC50 [2] of the same molecule?
A: Its IC50 is 12 µM.

Q: And the IC50 [3]?
A: The IC50 was 0.071 µM.

Q: What about the MIC [4] of the same molecule?
A: Its MIC is 1 µg/mL (≈ 2.93 µM).

Q: What about the MIC (Staphylococcus aureus [5]) of the same molecule?
A: Its MIC is greater than 64 µg/mL.

Q: What about the MIC (Moraxella catarrhalis) of the same molecule?
A: Its MIC is greater than 64 µg/mL.

Q: What about the MIC [6] of the same molecule?
A: The MIC was greater than 64 µg/mL.

Q: And the MIC (Escherichia coli [7])?
A: The MIC was greater than 64 µg/mL.

Q: And the MIC (Escherichia coli [8])?
A: The MIC was greater than 64 µg/mL.

Q: What about the solubility [10] of the same molecule?
A: The solubility was less than 1 µM.

Q: Which IC50 (DNA gyrase subunit B) does the source give for `CCNC(=O)Nc1cc(-c2ccncc2)c(-c2cncc(C(=O)O)c2)cn1` here?
A: Its IC50 is 0.32 µM.

Q: What about the IC50 [1] of the same molecule?
A: The IC50 was 0.24 µM.

Q: And the IC50 [2]?
A: The IC50 was 11 µM.

Q: What about the IC50 [3] of the same molecule?
A: Its IC50 is 0.31 µM.

Q: What about the MIC [4] of the same molecule?
A: Its MIC is greater than 9 µg/mL.

Q: And the MIC (Staphylococcus aureus [5])?
A: The MIC was greater than 9 µg/mL.

Q: And the MIC (Moraxella catarrhalis)?
A: The MIC was greater than 9 µg/mL.

Q: What about the MIC [6] of the same molecule?
A: Its MIC is greater than 9 µg/mL.

Q: What about the MIC (Escherichia coli [7]) of the same molecule?
A: The MIC was greater than 9 µg/mL.

Q: And the MIC (Escherichia coli [8])?
A: The MIC was greater than 9 µg/mL.

Q: What about the logD at 1 h [9] of the same molecule?
A: Its logD at 1 h is -0.82.

Q: What does the source list for `CCNC(=O)Nc1cc(-c2ccccc2)c(-c2cncc(C(=O)O)c2)cn1`?
A: IC50 (DNA gyrase subunit B): 0.06 µM; IC50 [1]: 0.096 µM; IC50 [2]: 2 µM; IC50 [3]: 0.17 µM; MIC [4]: 4.5 µg/mL (≈ 12.4 µM); MIC (Staphylococcus aureus [5]): > 64 µg/mL; MIC (Moraxella catarrhalis): > 64 µg/mL; MIC [6]: > 64 µg/mL; MIC (Escherichia coli [7]): > 64 µg/mL; MIC (Escherichia coli [8]): 36 µg/mL (≈ 99.3 µM); logD at 1 h [9]: -0.31

Q: What does the source list for `CCNC(=O)Nc1ccc(-c2nc(C(=O)O)cs2)cn1`?
A: IC50 (DNA gyrase subunit B): 3.6 µM; MIC [4]: > 64 µg/mL; MIC (Staphylococcus aureus [5]): > 64 µg/mL; MIC (Moraxella catarrhalis): > 64 µg/mL; MIC [6]: > 64 µg/mL; MIC (Escherichia coli [7]): > 64 µg/mL

Q: What does the source list for `CCNC(=O)Nc1ccc(-c2cccnc2)cn1`?
A: IC50 (DNA gyrase subunit B): 2.7 µM; IC50 [1]: 2 µM; IC50 [2]: 80 µM; IC50 [3]: 1.4 µM; MIC (Staphylococcus aureus [5]): > 48 µg/mL; MIC (Staphylococcus aureus [11]): > 64 µg/mL; MIC (Moraxella catarrhalis): > 48 µg/mL; MIC [6]: > 48 µg/mL; MIC (Escherichia coli [7]): > 48 µg/mL; MIC (Escherichia coli [8]): > 48 µg/mL

Q: Which IC50 (DNA gyrase subunit B) does the source give for `CCCNC(=O)Nc1ccccn1` here?
A: The IC50 was greater than 1000 µM.

Q: Which IC50 (DNA gyrase subunit B) does the source give for `CCNC(=O)Nc1cc(-c2nc(C(F)(F)F)cs2)c(-c2cncc(/C(N)=N/O)c2)cn1` here?
A: Its IC50 is 0.073 µM.

Q: What about the IC50 [1] of the same molecule?
A: Its IC50 is 0.032 µM.

Q: What about the IC50 [2] of the same molecule?
A: Its IC50 is 2 µM.

Q: What about the IC50 [3] of the same molecule?
A: The IC50 was 0.021 µM.

Q: And the MIC [4]?
A: Its MIC is less than 0.01 µg/mL.

Q: And the MIC (Staphylococcus aureus [5])?
A: Its MIC is 0.36 µg/mL (≈ 0.797 µM).

Q: What about the MIC (Staphylococcus aureus [11]) of the same molecule?
A: Its MIC is 0.72 µg/mL (≈ 1.59 µM).

Q: What about the MIC (Moraxella catarrhalis) of the same molecule?
A: Its MIC is 0.18 µg/mL (≈ 0.399 µM).

Q: And the MIC [6]?
A: The MIC was 1.4 µg/mL (≈ 3.1 µM).

Q: What about the MIC (Escherichia coli [7]) of the same molecule?
A: Its MIC is greater than 64 µg/mL.

Q: What about the MIC (Escherichia coli [8]) of the same molecule?
A: Its MIC is 0.18 µg/mL (≈ 0.399 µM).

Q: And the logD at 1 h [9]?
A: The logD at 1 h was 2.2.

Q: What about the solubility [10] of the same molecule?
A: Its solubility is 4 µM (≈ 1.81 µg/mL).

Q: What about the fraction unbound at 16 h, 10 µM [12] of the same molecule?
A: Its fraction unbound at 16 h, 10 µM is 0.35.

Q: What about the clearance [13] of the same molecule?
A: Its clearance is 22 mL/min/kg.

Q: Which IC50 (DNA gyrase subunit B) does the source give for `CCNC(=O)Nc1ccccc1` here?
A: The IC50 was greater than 1000 µM.

Q: Which results are given for `CCNC(=O)Nc1cc(-c2nc(C(F)(F)F)cs2)c(-c2nc3cccc(C(=O)O)c3s2)cn1`?
A: IC50 (DNA gyrase subunit B): < 0.01 µM; IC50 [1]: < 0.01 µM; IC50 [2]: 0.36 µM; IC50 [3]: < 0.01 µM; MIC [4]: 0.05 µg/mL (≈ 0.101 µM); MIC (Staphylococcus aureus [5]): 3.1 µg/mL (≈ 6.28 µM); MIC (Staphylococcus aureus [11]): 6.1 µg/mL (≈ 12.4 µM); MIC (Moraxella catarrhalis): 1.6 µg/mL (≈ 3.24 µM); MIC [6]: 12 µg/mL (≈ 24.3 µM); MIC (Escherichia coli [7]): > 64 µg/mL; MIC (Escherichia coli [8]): 0.8 µg/mL (≈ 1.62 µM); logD at 1 h [9]: 0.73

Q: Which results are given for `CCNC(=O)Nc1cc(-c2nc(C(F)(F)F)cs2)c(-c2ncc(C(=O)O)s2)cn1`?
A: IC50 (DNA gyrase subunit B): < 0.01 µM; IC50 [1]: < 0.01 µM; IC50 [2]: 0.94 µM; IC50 [3]: < 0.01 µM; MIC [4]: 2.8 µg/mL (≈ 6.31 µM); MIC (Staphylococcus aureus [5]): > 64 µg/mL; MIC (Staphylococcus aureus [11]): 44 µg/mL (≈ 99.2 µM); MIC (Moraxella catarrhalis): 44 µg/mL (≈ 99.2 µM); MIC [6]: > 64 µg/mL; MIC (Escherichia coli [7]): > 64 µg/mL; MIC (Escherichia coli [8]): 22 µg/mL (≈ 49.6 µM)

Q: With `CCNC(=O)Nc1cc(Br)c(-c2cncc(C(=O)O)c2)cn1` as the molecule, how does the IC50 (DNA gyrase subunit B) read?
A: Its IC50 is 0.3 µM.

Q: What about the IC50 [1] of the same molecule?
A: The IC50 was 0.068 µM.

Q: And the IC50 [2]?
A: Its IC50 is 4.8 µM.

Q: What about the IC50 [3] of the same molecule?
A: The IC50 was 0.053 µM.

Q: What about the MIC [4] of the same molecule?
A: The MIC was 4.6 µg/mL (≈ 12.6 µM).

Q: What about the MIC (Staphylococcus aureus [5]) of the same molecule?
A: The MIC was greater than 9 µg/mL.

Q: What about the MIC [6] of the same molecule?
A: Its MIC is greater than 9 µg/mL.

Q: What about the MIC (Escherichia coli [7]) of the same molecule?
A: Its MIC is greater than 9 µg/mL.

Q: And the MIC (Escherichia coli [8])?
A: The MIC was greater than 9 µg/mL.

Q: What about the logD at 1 h [9] of the same molecule?
A: Its logD at 1 h is -1.

Q: Which IC50 (DNA gyrase subunit B) does the source give for `CNC(=O)Nc1ccccn1` here?
A: Its IC50 is 100 µM.
